Two compounds from ChEMBL document CHEMBL1129865, “Synthesis, evaluation, and crystallographic analysis of L-371,912: A potent and selective active-site thrombin inhibitor” (Bioorg Med Chem Lett, 1997) can be followed below.

Assay [1] can be described thus: Concentration required to double the activated partial thromboplastin time in human plasma was determined. It counts as functional.
Assay [2] has as its system Rattus norvegicus. The assay is described as follows: Efficacy by observing the number of occulation in rat when a dose of 6 ug/Kg/min iv. administration; 1/6. It counts as functional.
The next assay has as its target T1, Serine protease 1 (Bos taurus, UniProt P00760).
T1 sequence (P00760 whole entry): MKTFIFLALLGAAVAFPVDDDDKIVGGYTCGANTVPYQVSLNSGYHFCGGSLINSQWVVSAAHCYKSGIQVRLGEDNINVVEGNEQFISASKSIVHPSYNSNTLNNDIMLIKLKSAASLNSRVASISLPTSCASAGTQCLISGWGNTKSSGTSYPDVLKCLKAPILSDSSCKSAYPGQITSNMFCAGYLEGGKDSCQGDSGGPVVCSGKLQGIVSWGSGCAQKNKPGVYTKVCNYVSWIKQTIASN
The assay is described as follows: In vitro inhibition against bovine trypsin was determined.

Assay [3] deals with Rattus norvegicus. In words: Efficacy by observing the number of occulation in rat when a dose of 6 ug/Kg/min iv. administration; 3/6. Format: functional.

As to `CN[C@H](Cc1ccccc1)C(=O)N1CCC[C@H]1C(=O)NC[C@H]1CC[C@H](N)CC1`, in assay [1], the APPTT came out at 1.1 µM. Besides, in the assay with Rattus norvegicus [2], the Occulations was found to be 1.
By Ki is commonly meant a dissociation constant, usually derived from enzyme kinetics or from competition with a known ligand. In turn, `CNC(=O)C(=O)[C@@H](NC(=O)[C@@H]1CCCN1C(=O)[C@@H](Cc1ccccc1)NC)[C@H]1CC[C@H](N)CC1` returned an APPTT in assay [1] of 2 µM. Moreover, the Ki on Serine protease 1 is 1150 nM. The same compound gave an Occulations in the assay on Rattus norvegicus [3] of 3.
